pIC50: −log10 of the molar value.
The molecules below were run against T1, human PAR-2 (hPAR-2) receptor expressed in HEK-293 T cells in an endogenous manner (Homo sapiens, UniProt P55085) (assay: In vitro human PAR-2 functional antagonist activity using calcium assays (Fluo4AM, FLIPR Tetra)). Settings: HEK-293 T cells stimulated by an EC80 of the 2-Furoyl-LIGRLO-NH2 peptide after 10 min incubation with compound; 20 concentrations, duplicate, two independent experiments.
T1 construct: human PAR-2 (hPAR-2) receptor expressed in HEK-293 T cells in an endogenous manner; endogenous in cells; host or cells: HEK-293 T cells
T1 sequence (P55085 26-397): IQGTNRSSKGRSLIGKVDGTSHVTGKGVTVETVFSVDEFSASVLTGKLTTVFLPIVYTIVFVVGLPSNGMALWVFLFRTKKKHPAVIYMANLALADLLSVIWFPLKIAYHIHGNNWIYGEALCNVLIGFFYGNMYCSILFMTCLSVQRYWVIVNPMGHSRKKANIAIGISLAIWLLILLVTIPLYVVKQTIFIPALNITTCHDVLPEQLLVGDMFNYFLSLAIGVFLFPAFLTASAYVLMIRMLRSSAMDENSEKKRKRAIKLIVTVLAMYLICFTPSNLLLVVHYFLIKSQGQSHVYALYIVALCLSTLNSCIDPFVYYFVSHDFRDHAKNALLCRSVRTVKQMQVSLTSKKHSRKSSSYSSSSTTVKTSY
Type: cell-based
Method in brief: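 Antagonist activity was taken as the decrease in the calcium response to an EC80 of 2-Furoyl-LIGRLO-NH2, measured over 5 min. The agonist was added after a 10 min compound-alone step on the same plate. The HEK-293 T cells express PAR-2 endogenously and were loaded with 1 μM Fluo4AM. Signals were referenced to buffer and EC80-alone controls.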

| SMILES | pIC50 |
| --- | --- |
| O=C(c1ccc2c(-c3ccc(Cl)c(F)c3)cn(CC(F)(F)F)c2n1)N1CCCOCC1 [Example 32, (3-(4-chloro-3-fluorophenyl)-1-(2,2,2-trifluoroethyl)-1H-pyrrolo[2,3-b]pyridin-6-yl)(1,4-oxazepan-4-yl)methanone] | < 5.00 |
| Cn1cc(-c2ccc(Cl)c(F)c2)c2ccc(C(=O)N3CCNC(=O)C3(C)C)nc21 [Example 34, 4-(3-(4-chloro-3-fluorophenyl)-1-methyl-1H-pyrrolo[2,3-b]pyridine-6-carbonyl)-3,3-dimethylpiperazin-2-one] | 5.00 to 7.70 |
| Cc1cc(N2CCN(C(=O)c3ccc4c(-c5ccc(Cl)c(F)c5)cn(CC5(C)CCOCC5)c4n3)C(C)(C)C2)nc(C)c1C(=O)O [Example 183, 6-(4-(3-(4-chloro-3-fluorophenyl)-1-((4-methyltetrahydro-2H-pyran-4-yl)methyl)-1H-pyrrolo[2,3-b]pyridine-6-carbonyl)-3,3-dimethylpiperazin-1-yl)-2,4-dimethyinicotinic acid] | > 7.70 |
| COc1cccc(Cn2cc(-c3ccc(Cl)c(F)c3)c3ccc(C(=O)N4CCN(c5cc(C)c(C(=O)O)c(C)n5)CC4(C)C)nc32)n1 [Example 161, 6-(4-(3-(4-chloro-3-fluorophenyl)-1-((6-methoxypyridin-2-yl)methyl)-1H-pyrrolo[2,3-b]pyridine-6-carbonyl)-3,3-dimethylpiperazin-1-yl)-2,4-dimethylnicotinic acid] | > 7.70 |
| COC(=O)CC1CCN(C(=O)c2ccc3c(-c4ccc(Cl)c(F)c4)cn(CC(C)C)c3c2)CC1 [Example 203, methyl 2-(1-(3-(4-chloro-3-fluorophenyl)-1-isobutyl-1H-indole-6-carbonyl)piperidin-4-yl)acetate] | 5.00 to 7.70 |
| CCOCC(C)(C)n1cc(-c2ccc(Cl)c(F)c2)c2ccc(C(=O)N3CCN(c4cc(C)c(C(=O)O)c(C)n4)CC3(C)C)nc21 [Example 126, 6-(4-(3-(4-chloro-3-fluorophenyl)-1-(1-ethoxy-2-methylpropan-2-yl)-1H-pyrrolo[2,3-b]pyridine-6-carbonyl)-3,3-dimethylpiperazin-1-yl)-2,4-dimethylnicotinic acid] | > 7.70 |
| CN1CNC(=O)C12CCN(C(=O)c1ccc3c(-c4ccc(Cl)c(F)c4)cn(C(C)(C)C)c3n1)CC2 [Example 209, 8-(1-(tert-butyl)-3-(4-chloro-3-fluorophenyl)-1H-pyrrolo[2,3-b]pyridine-6-carbonyl)-1-methyl-1,3,8-triazaspiro[4.5]decan-4-one] | < 5.00 |
| Cc1cc(N2CCN(C(=O)c3ccc4c(-c5ccc(Cl)c(F)c5)cn(CC(=O)O)c4n3)C(C)(C)C2)nc(C)c1C(=O)O [Example 133, 6-(4-(1-(carboxymethyl)-3-(4-chloro-3-fluorophenyl)-1H-pyrrolo[2,3-b]pyridine-6-carbonyl)-3,3-dimethylpiperazin-1-yl)-2,4-dimethylnicotinic acid] | < 5.00 |
| CN1CCN(C(=O)c2ccc3c(-c4ccc(Cl)c(F)c4)cn(C(C)(C)C)c3n2)C(C)(C)C1=O [Example 2, 4-(1-(tert-butyl)-3-(4-chloro-3-fluorophenyl)-1H-pyrrolo[2,3-b]pyridine-6-carbonyl)-1,3,3-trimethylpiperazin-2-one] | > 7.70 |
| Cc1cc(N2CCN(C(=O)c3cc(C)c4c(-c5ccc(Cl)c(F)c5)cn(CC(C)C)c4n3)CC2)nc(C)c1C(=O)O [Example 189, 6-(4-(3-(4-chloro-3-fluorophenyl)-1-isobutyl-4-methyl-1H-pyrrolo[2,3-b]pyridine-6-carbonyl)piperazin-1-yl)-2,4-dimethylnicotinic acid] | < 5.00 |
| CC1(C)C(=O)NCCN1C(=O)c1ccc2c(n1)c(C1CCCC1)nn2-c1ccc(Cl)c(F)c1 [Example 76, 4-(1-(4-chloro-3-fluorophenyl)-3-cyclopentyl-1H-pyrazolo[4,3-b]pyridine-5-carbonyl)-3,3-dimethylpiperazin-2-one] | 5.00 to 7.70 |
| CC(C)(C)n1cc(-c2ccc(Cl)c(F)c2)c2ccc(C(=O)N3[C@@H]4CC[C@H]3CC(O)C4)nc21 (stereo partly drawn) [Example 11, (1-(tert-butyl)-3-(4-chloro-3-fluorophenyl)-1H-pyrrolo[2,3-b]pyridin-6-yl)((1R,3r,5S)-3-hydroxy-8-azabicyclo[3.2.1]octan-8-yl)methanone] | < 5.00 |
| CC(C)(C)n1cc(-c2ccc(Cl)c(F)c2)c2ccc(C(=O)N3CC[C@H]4CNC(=O)[C@H]43)nc21 [Example 15, (3aS,6aS)-1-(1-(tert-butyl)-3-(4-chloro-3-fluorophenyl)-1H-pyrrolo[2,3-b]pyridine-6-carbonyl)hexahydropyrrolo[3,4-b]pyrrol-6(1H)-one] | 5.00 to 7.70 |
| Cc1cc(N2CCN(C(=O)c3ccc4c(-c5ccc(C(F)(F)F)c(F)c5)cn(CC(C)C)c4n3)C(C)(C)C2)nc(C)c1C(=O)O [Example 144, 6-(4-(3-(3-fluoro-4-(trifluoromethyl)phenyl)-1-isobutyl-1H-pyrrolo[2,3-b]pyridine-6-carbonyl)-3,3-dimethylpiperazin-1-yl)-2,4-dimethylnicotinic acid] | > 7.70 |
| CC(C)Cn1cc(-c2cccc(F)c2)c2ccc(C(=O)N3CCNC(=O)C3(C)C)nc21 [Example 114, 4-(3-(3-fluorophenyl)-1-isobutyl-1H-pyrrolo[2,3-b]pyridine-6-carbonyl)-3,3-dimethylpiperazin-2-one] | 5.00 to 7.70 |
| Cc1nc(Cn2cc(-c3ccc(Cl)c(F)c3)c3ccc(C(=O)N4CCN(c5cc(C)c(C(=O)O)c(C)n5)CC4(C)C)nc32)c(C)o1 [Example 159, 6-(4-(3-(4-chloro-3-fluorophenyl)-1-((2,5-dimethyloxazol-4-yl)methyl)-1H-pyrrolo[2,3-b]pyridine-6-carbonyl)-3,3-dimethylpiperazin-1-yl)-2,4-dimethylnicotinic acid] | 5.00 to 7.70 |
| Cc1cc(N2CCN(C(=O)c3ccc4c(-c5ccc(Cl)c(F)c5)cn(C[C@H]5CCCO5)c4n3)C(C)(C)C2)nc(C)c1C(=O)O [Example 212, (R)-6-(4-(3-(4-chloro-3-fluorophenyl)-1-((tetrahydrofuran-2-yl)methyl)-1H-pyrrolo[2,3-b]pyridine-6-carbonyl)-3,3-dimethylpiperazin-1-yl)-2,4-dimethylnicotinic acid] | > 7.70 |
| CC(C)Cn1cc(-c2ccc3c(c2)OCO3)c2ccc(C(=O)N3CCNC(=O)C3(C)C)nc21 [Example 223, 4-(3-(benzo[d][1,3]dioxol-5-yl)-1-isobutyl-1H-pyrrolo[2,3-b]pyridine-6-carbonyl)-3,3-dimethylpiperazin-2-one] | 5.00 to 7.70 |
| CC1(C)CN(C(=O)CCCCCCC(=O)O)CCN1C(=O)c1ccc2c(-c3ccc(Cl)c(F)c3)cn(C(C)(C)C)c2n1 [Example 215, 8-(4-(1-(tert-butyl)-3-(4-chloro-3-fluorophenyl)-1H-pyrrolo[2,3-b]pyridine-6-carbonyl)-3,3-dimethylpiperazin-1-yl)-8-oxooctanoic acid] | > 7.70 |
| CC(C)Cn1cc(-c2cc3ccccc3o2)c2ccc(C(=O)N3CCNC(=O)C3(C)C)nc21 [Example 224, 4-(3-(benzofuran-2-yl)-1-isobutyl-1H-pyrrolo[2,3-b]pyridine-6-carbonyl)-3,3-dimethylpiperazin-2-one] | 5.00 to 7.70 |
| CC1(C)CN(C(=O)c2ccc3c(-c4ccc(Cl)c(F)c4)cn(C(C)(C)C)c3n2)CCC1C(=O)O (centres unmarked) [Example 22, 1-(1-(tert-butyl)-3-(4-chloro-3-fluorophenyl)-1H-pyrrolo[2,3-b]pyridine-6-carbonyl)-3,3-dimethylpiperidine-4-carboxylic acid] | 5.00 to 7.70 |
| Cc1cc(N2CCN(C(=O)c3ccc4c(-c5ccc(Cl)c(F)c5)cn(C(C)(C)C)c4n3)C(C)(C)C2)nc(C)c1C(=O)O [Example 26, 6-(4-(1-(tert-butyl)-3-(4-chloro-3-fluorophenyl)-1H-pyrrolo[2,3-b]pyridine-6-carbonyl)-3,3-dimethylpiperazin-1-yl)-2,4-dimethylnicotinic acid] | > 7.70 |
| CC(C)(C)c1nn(-c2ccc(Cl)c(F)c2)c2ncc(C(=O)N3CCNC(=O)C3(C)C)cc12 [Example 80, 4-(3-(tert-butyl)-1-(4-chloro-3-fluorophenyl)-1H-pyrazolo[3,4-b]pyridine-5-carbonyl)-3,3-dimethylpiperazin-2-one] | 5.00 to 7.70 |
| Cc1cc(N2CCN(C(=O)c3ccc4c(-c5ccc(Cl)c(F)c5)cn(C(C)(C)C)c4n3)[C@H](C)C2)nc(C)c1C(=O)O [Example 130, (R)-6-(4-(1-(tert-butyl)-3-(4-chloro-3-fluorophenyl)-1H-pyrrolo[2,3-b]pyridine-6-carbonyl)-3-methylpiperazin-1-yl)-2,4-dimethylnicotinic acid] | 5.00 to 7.70 |
| CC1(C)C(=O)NCCN1C(=O)c1ccc2c(-c3ccc(Cl)c(F)c3)cn(CC3CC3)c2n1 [Example 35, 4-(3-(4-chloro-3-fluorophenyl)-1-(cyclopropylmethyl)-1H-pyrrolo[2,3-b]pyridine-6-carbonyl)-3,3-dimethylpiperazin-2-one] | > 7.70 |
| CC(C)(C)n1cc(-c2ccc(Cl)c(F)c2)c2ccc(C(=O)N3C[C@@H]4[C@@H](CC(=O)O)[C@@H]4C3)nc21 [Example 124, 2-((1R,5S,6s)-3-(1-(tert-butyl)-3-(4-chloro-3-fluorophenyl)-1H-pyrrolo[2,3-b]pyridine-6-carbonyl)-3-azabicyclo[3.1.0]hexan-6-yl)acetic acid] | > 7.70 |
